Measured values as given in ChEMBL document CHEMBL1143140, “RCAI-8, 9, 18, 19, and 49-52, conformationally restricted analogues of KRN7000 with an azetidine or a pyrrolidine ring: Their synthesis and bioactivity for mouse natural killer T cells to produce cytokines” (Bioorg Med Chem, 2008).
Calls of active or inactive are those of the source. No cut-off for these calls is given here.

What was measured:
Type in all cases: functional, cell-based
Splenocyte [1] = assay: Induction of IL13 production in C57BL/6 mouse splenocytes after 48 hrs by cytometric bead array method
Splenocyte [2] = assay: Induction of IL2 production in C57BL/6 mouse splenocytes after 48 hrs by cytometric bead array method
Splenocyte [3] = assay: Induction of IL4 production in C57BL/6 mouse splenocytes after 48 hrs by cytometric bead array method
Splenocyte [4] = assay: Induction of IFN-gamma production in C57BL/6 mouse splenocytes after 48 hrs by cytometric bead array method
Splenocyte [5] = assay: Induction of IL10 production in C57BL/6 mouse splenocytes after 48 hrs by cytometric bead array method

Row | SMILES | Activity (Splenocyte [1]) | Activity (Splenocyte [2]) | Activity (Splenocyte [3]) | Activity (Splenocyte [4]) | Activity (Splenocyte [5])
1 | CCCCCCCCCCCCCCCCCCCCCCCCCC(=O)N1[C@@H](CCCCCCCCCCCCC)C[C@@H](O)[C@@H]1CO[C@H]1O[C@H](CO)[C@H](O)[C@H](O)[C@H]1O | inactive | inactive | inactive | inactive | inactive
2 | CCCCCCCCCCCCCCCCCCCCCCCCCC(=O)N1[C@H](CCCCCCCCCCCCC)C[C@@H](O)[C@@H]1CO[C@H]1O[C@H](CO)[C@H](O)[C@H](O)[C@H]1O | Active | Active | Active | Active | Active
3 | CCCCCCCCCCCCCCCCCCCCCCCCCC(=O)N1[C@@H](CCCCCCCCCCCCCC)[C@@H](O)[C@@H]1CO[C@H]1O[C@H](CO)[C@H](O)[C@H](O)[C@H]1O | Active | Active | Active | Active | Active
4 | CCCCCCCCCCCCCCCCCCCCCCCCCC(=O)N1[C@@H](CCCCCCCCCCCCCC)[C@@H](O)[C@@H]1CO[C@@H]1O[C@H](CO)[C@H](O)[C@H](O)[C@H]1O | inactive | inactive | inactive | inactive | inactive
5 | CCCCCCCCCCCCCCCCCCCCCCCCCC(=O)N1[C@H](CCCCCCCCCCCCCC)[C@@H](O)[C@@H]1CO[C@@H]1O[C@H](CO)[C@H](O)[C@H](O)[C@H]1O | inactive | inactive | inactive | inactive | inactive
6 | CCCCCCCCCCCCCCCCCCCCCCCCCC(=O)N1[C@H](CCCCCCCCCCCCCC)[C@@H](O)[C@@H]1CO[C@H]1O[C@H](CO)[C@H](O)[C@H](O)[C@H]1O | inactive | inactive | inactive | inactive | inactive
7 | CCCCCCCCCCCCCCCCCCCCCCCCCC(=O)N1[C@H](CCCCCCCCCCCCC)C[C@@H](O)[C@@H]1CO[C@@H]1O[C@H](CO)[C@H](O)[C@H](O)[C@H]1O | inactive | inactive | inactive | inactive | inactive
8 | CCCCCCCCCCCCCCCCCCCCCCCCCC(=O)N1[C@@H](CCCCCCCCCCCCC)C[C@@H](O)[C@@H]1CO[C@@H]1O[C@H](CO)[C@H](O)[C@H](O)[C@H]1O | inactive | inactive | inactive | inactive | inactive
